What was measured:
Brassica napus [1] = assay: In vivo analyses Part B: drought stress, spray application, appearance vs stressed control in categories, Brassica napus; design: key: 0: no positive effect; +: slight positive effect; ++: clear positive effect; +++: strong positive effect
Experimental: (§1) Seeds of monocotyledonous and dicotyledonous crop plants were sown in sandy loam in plastic pots, covered with soil or sand and cultivated in a greenhouse under good growth conditions. The test plants are treated at the early leaf stage (BBCH10-BBCH13). To assure uniform water supply before commencement of stress, the potted plants were supplied with water by dam irrigation prior to substance application. The inventive compounds were first formulated as wettable powders (WP) or dissolved in a solvent mixture. The further dilution was effected with water supplemented with 0.2% wetting agent (e.g. agrotin). The finished spray liquor was sprayed onto the green parts of the plant at an equivalent water application rate of 600 l/ha. Substance application was followed immediately by stress treatment of the plants. Drought stress was induced by gradual drying out under the following conditions: “Day”: 14 hours with illumination at ˜26-30° C. “Night”: 10 hours without illumination at ˜18-20° C. The duration of the respective stress phases was guided mainly by the condition of the stressed control plants. It was ended (by re-irrigating and transfer to a greenhouse with good growth conditions) as soon as irreversible damage was observed on the stressed control plants. The end of the stress phase was followed by an about 4-7-day recovery phase, during which the plants were once again kept under good growth conditions in a greenhouse. The duration of the recovery phase was guided mainly by when the trial plants had attained a state which enabled visual scoring of potential effects, and was therefore variable. Once this juncture had been reached, the appearance of the plants treated with test substances was recorded in comparison to the stressed control plants by the following categories: • 0 no positive effect • + slight positive effect • ++ clear positive effect • +++ strong positive effect In order to rule out any influence on the effects observed by any fungicidal or insecticidal action of the test compounds, it was additionally ensured that the tests proceeded without fungal infection or insect infestation. The values reported in tables B-1 and B-2 below are mean values of the results from at least three repeats. Effects of selected compounds of the general formula (I) under drought stress according to the following tables B-1 and B-2: […]

Triticum aestivum = assay: In vivo analyses Part B: drought stress, spray application, appearance vs stressed control in categories, Triticum aestivum; design: key: 0: no positive effect; +: slight positive effect; ++: clear positive effect; +++: strong positive effect
Experimental: as §1

Brassica napus [2] = assay: In vivo analyses Part A: drought stress, spray application, visual damage scoring, Brassica napus
Experimental: Seeds of monocotyledonous and dicotyledonous crop plants were sown in sandy loam in wood-fiber or plastic pots, covered with soil or sand and cultivated in a greenhouse under good growth conditions. The trial plants were treated at the early leaf stage (BBCH10-BBCH13). To assure uniform water supply before commencement of stress, the potted plants were supplied with water by dam irrigation prior to substance application. The inventive compounds formulated in the form of wettable powders (WP) were sprayed onto the green parts of the plants as an aqueous suspension at an equivalent water application rate of 600 l/ha with addition of 0.2% wetting agent (e.g. agrotin). Substance application was followed immediately by stress treatment of the plants. For this purpose, the wood-fiber pots were transferred in plastic inserts in order to prevent them from subsequently drying out too quickly. Drought stress was induced by gradual drying out under the following conditions: “Day”: 14 hours with illumination at ˜26-30° C. “Night”: 10 hours without illumination at ˜18-20° C. The duration of the respective stress phases was guided mainly by the condition of the stressed control plants. It was ended (by re-irrigating and transfer to a greenhouse with good growth conditions) as soon as irreversible damage was observed on the stressed control plants. The end of the stress phase was followed by an about 4-7-day recovery phase, during which the plants were once again kept under good growth conditions in a greenhouse. The duration of the recovery phase was guided mainly by when the trial plants had attained a state which enabled visual scoring of potential effects, and is therefore variable. Once this juncture was reached, the intensities of damage were scored visually in comparison to untreated, unstressed controls of the same age. The damage intensity was at first assessed in per cent. These values were then used to calculate the efficacy of the test compounds by the following formula: [formula] EF: Efficacy DIs: Damage intensity of the stressed control plants DIt: Damage intensity of the stressed plants treated with test compound The values reported in tables A-1 to A-3 below are mean values from at least one trial with at least two repeats, showing the effects of selected compounds of the general formula (I) under drought stress on various crop plants.

Structure (SMILES) | Effect (BRSNS) (Brassica napus [1]; dosage 25 g/ha) | Effect (BRSNS) (Brassica napus [1]; dosage 250 g/ha) | also measured
CN(C)N(Cc1c(F)cccc1F)C(=O)c1ccccc1C(F)(F)F [A1-17] | ++ | – | –
CN(C)N(Cc1cccc(Cl)c1)C(=O)c1ccccc1Cl [A10-2] | ++ | – | Effect (TRZAS) (Triticum aestivum; dosage 250 g/ha): +
CN(C)N(Cc1nccc(Cl)c1Cl)C(=O)c1cnccc1C(F)(F)F [B1-40] | – | + | –
CN(C)N(Cc1c(Cl)cc(C(F)(F)F)c(F)c1F)C(=O)c1ccc(F)cc1C(F)(F)F [A14-608] | + | – | Effect (TRZAS) (Triticum aestivum; dosage 25 g/ha): +
CN(C)N(Cc1ccc(C(F)(F)F)cc1Cl)C(=O)c1ccc(F)cc1C(F)(F)F [A14-91] | – | + | Effect (TRZAS) (Triticum aestivum; dosage 25 g/ha): +
CN(C)N(Cc1ccc(Cl)nc1)C(=O)c1ccc(C(F)F)nc1 [B6-94] | – | + | Effect (TRZAS) (Triticum aestivum; dosage 250 g/ha): +
CN(C)N(Cc1ncccn1)C(=O)c1ccccc1C(F)(F)F [A1-27] | – | ++ | –
CN(C)N(Cc1ccccc1C#N)C(=O)c1ccnnc1 [G1-61] | – | – | Effect (TRZAS) (Triticum aestivum; dosage 100 g/ha): +; Effect (BRSNS) (Brassica napus [1]; dosage 100 g/ha): +
CN(C)N(Cc1ccc(C#N)cc1)C(=O)c1cnccc1C(F)(F)F [B1-63] | – | +++ | –
CN(C)N(Cc1cccc(C#N)c1)C(=O)c1ccncc1 [C1-62] | – | – | EF [%] (BRSNS) (Brassica napus [2]; dosage 2.5 g/ha): >5%
CN(C)N(CCc1ccc(Cl)cc1)C(=O)c1ccc(Cl)cc1 [A9-614] | – | – | EF [%] (BRSNS) (Brassica napus [2]; dosage 250 g/ha): >5%
CN(C)N(Cc1cccnc1C#N)C(=O)c1ccccc1I [A36-679] | – | + | Effect (TRZAS) (Triticum aestivum; dosage 250 g/ha): +
CN(C)N(Cc1ccccc1F)C(=O)c1cc(Cl)ccc1Cl [A7-11] | – | – | EF [%] (BRSNS) (Brassica napus [2]; dosage 25 g/ha): >5%
CN(C)N(Cc1c(Cl)cc(Cl)cc1Cl)C(=O)c1cnccc1C(F)(F)F [B1-10] | – | +++ | –
CN(C)N(Cc1ccccn1)C(=O)c1ccc(C(F)(F)F)nc1 [B5-21] | – | + | –
COc1ccccc1C(=O)N(Cc1ccc(F)cc1F)N(C)C [A8-15] | – | + | Effect (TRZAS) (Triticum aestivum; dosage 25 g/ha): ++

Structure (SMILES) | Effect (BRSNS) (Brassica napus [1]; dosage 25 g/ha) | Effect (BRSNS) (Brassica napus [1]; dosage 250 g/ha) | also measured
CN(C)N(Cc1ccccc1Cl)C(=O)c1cncnc1C(F)(F)Cl [E3-1] | + | – | Effect (TRZAS) (Triticum aestivum; dosage 25 g/ha): +
Cc1ccc(C(=O)N(Cc2ccccc2C#N)N(C)C)c(C(F)(F)F)c1 [A50-61] | + | – | –
Cc1ccc(C(=O)N(Cc2nccc(Cl)c2Cl)N(C)C)c(C(F)(F)F)c1 [A50-40] | ++ | – | Effect (TRZAS) (Triticum aestivum; dosage 250 g/ha): +
CN(C)N(Cc1ccccc1C#N)C(=O)c1ccc(C(F)(F)F)nc1 [B5-61] | + | – | Effect (TRZAS) (Triticum aestivum; dosage 25 g/ha): +
CCN(C)N(Cc1ccccc1C#N)C(=O)c1cnccc1C(F)(F)F [B17-61] | – | + | –
CN(C)N(Cc1ccccc1C#N)C(=O)c1ccc(Cl)cc1C(F)(F)F [A51-61] | ++ | – | Effect (TRZAS) (Triticum aestivum; dosage 25 g/ha): +
CN(C)N(Cc1c(F)cccc1F)C(=O)c1cnccc1C(F)(F)F [B1-17] | – | ++ | Effect (TRZAS) (Triticum aestivum; dosage 250 g/ha): +
CN(C)N(Cc1c(Cl)cccc1Cl)C(=O)c1cnccc1C(F)(F)F [B1-7] | – | +++ | Effect (TRZAS) (Triticum aestivum; dosage 250 g/ha): +
CN(C)N(Cc1ccccc1C#N)C(=O)c1cnccc1C(F)(F)F [B1-61] | – | ++ | –
CN(C)N(Cc1cccnc1C#N)C(=O)c1ccccc1C(F)(F)F [A1-679] | + | – | Effect (TRZAS) (Triticum aestivum; dosage 250 g/ha): +
CN(C)N(Cc1ncc(C(F)(F)F)cc1Cl)C(=O)c1ccc(C#N)cc1C(F)(F)F [A48-36] | ++ | – | –
CN(C)N(Cc1ccc(Cl)nc1Cl)C(=O)c1ccc(F)cc1C(F)(F)F [A14-99] | – | + | Effect (TRZAS) (Triticum aestivum; dosage 25 g/ha): +
CN(C)N(Cc1ccc(Cl)cc1Cl)C(=O)c1cnccc1C(F)(F)F [B1-5] | – | +++ | –
CN(C)N(Cc1ccc(C#N)cc1)C(=O)c1ccccc1C(F)(F)F [A1-63] | – | + | –
CN(C)N(Cc1ccccc1C#N)C(=O)c1ccccc1I [A36-61] | – | + | Effect (TRZAS) (Triticum aestivum; dosage 250 g/ha): +

— patent US20180206495A1, “SUBSTITUTED ARYL AND HETEROARYL CARBOXYLIC ACID HYDRAZIDES OR SALTS THEREOF AND USE THEREOF TO INCREASE STRESS TOLERANCE IN PLANTS” (BAYER CROPSCIENCE AKTIENGESELLSCHAFT, priority 2015, published 2018)
